Like-named read-outs stand apart in the source and are kept apart here.
Legend:
[1] = test system: RIPK1 (S161E); assay: Effect of RIPK1 S161E mutation on compound activity (S161E MEFs western blot and cell death with TNFα and 5z7); format: cell-based, mouse; conditions: FIG. 6
Protocol: The biological test protocol used in this experiment was to test the effect of serine mutation at position 161 of RIPK1 to glutamic acid on the activity of the compound. The experiment was verified by two aspects. On the one hand, the mouse-derived MEFs cells in which RIPK1 (S161E) was put back after knocking out RIPK1 were treated with the compound of the present invention, and the phosphorylation state of RIPK1 was detected by western-blot; on the other hand, whether the compounds of the present invention have inhibitory effect on RIPK1-dependent apoptosis in the above-mentioned S161E cells was detected.
1. S161E MEFs cells were digested, and then diluted to 1.5×10^5/ml, and the cells were seeded into 6-well plates with 2 ml per well. The plate was placed in a cell incubator (37° C., 5% CO2) for 12 hours. 0.4 μL of compound 4-8 (50 mM in DMSO) or 0.4 μL of Nec-1s (50 μM in DMSO) was added to the wells respectively, 0.4 μL of DMSO was added to the control group. […] The BCA protein quantification kit was used to detect the protein content of each group, and PIPA lysis buffer was used to adjust the protein amount to make the final volume of 100 μL. […] The cells were incubated at room temperature for 30 min, and the luminescence value was detected to measure the level of intracellular ATP. […]

[2] = test system: FADD−/− Jurkat cells; assay: TNF-induced programmed cell necrosis inhibition, Cell Titer-Glo viability; format: cell-based; conditions: Homo sapiens, Jurkat
Summary of the method: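 FADD-deficient Jurkat cells (2.5×10^5/mL) were pretreated 1 h at 37 °C with compound plus Smac (50 nM as added), then stimulated with TNFα (50 ng/mL as added) for 14 h at 37 °C, 5% CO2. Viability was measured as ATP by CellTiter-Glo luminescence, with unstimulated DMSO wells as 100%. EC50 values were derived.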

[3] = test system: L929 cells; assay: as above; format: cell-based, mouse; conditions: Mus musculus, read-out: EC50 inhibitory activity on programmed cell necrosis
Summary of the method: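 L929 mouse fibroblasts were pretreated 1 h at 37 °C with compound plus Smac (500 nM solution added), then stimulated with TNFα (500 ng/mL solution added) for 14 h. Viability was read as ATP by CellTiter-Glo luminescence, with unstimulated DMSO wells set to 100%, and EC50 values were calculated.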

[4] = 14 h, TNFa + SM164, read-out: EC50 inhibitory activity on programmed cell necrosis
[5] = TNFa, read-out: EC50 inhibitory activity on programmed cell necrosis
[6] = L929, 14 h, L929 cells (mouse), TNFa + SM164

Row | Structure (SMILES) | inhibition of programmed cell necrosis after mutation of serine 161 of RIPK1 to glutamic acid [1] | EC50 [2, 4] | EC50 [2, 5] | EC50 [3, 6] | EC50 ([3]; L929, L929 cells (mouse), TNFa) | EC50 ([3]; L929, L929 cells (mouse), TNFa + SM164)
1 | Cc1ccc(C2CCCN2C(=O)C(C)(C)Oc2ccc(Cl)cc2)cc1 (stereo not shown) [QY-4-8] | can still inhibit the programmed cells necrosis | 568 nM | 91 nM | 139 nM | 50 nM | 
2 | Cc1ccc(C2CCCN2C(=O)C(C)(C)Oc2cc(C(N)=O)ncn2)cc1 (stereo not shown) [QY-14-27] |  | > 10000 nM | > 10000 nM | > 10000 nM | 8450 nM | 
3 | Cc1ccc(C2CCCN2C(=O)C(C)(C)Oc2ccc(C(N)=O)cc2)cc1 (stereo not shown) [QY-14-34] |  | > 10000 nM | 2360 nM | > 10000 nM | 816 nM | 
4 | [2H]c1c([2H])c([C@]2([2H])CCCN2C(=O)C(C)(C)Oc2ccc(Cl)cc2OC)c([2H])c([2H])c1C([2H])([2H])[2H] [QY-11-1] |  |  | 4.05 nM | 2.66 nM | 0.0803 nM | 
5 | Cn1cnc2ccc(OC(C)(C)C(=O)N3CCCC3c3ccc(Cl)cc3)cc21 (stereo not shown) [QY-12-32] |  | 2420 nM | 535 nM | 1160 nM | 243 nM | 
6 | Cc1ccccc1C1CCCN1C(=O)C(C)(C)Oc1ccc(Cl)cc1 (stereo not shown) [QY-4-27] |  | > 10000 nM | 2900 nM | > 10000 nM | 3670 nM | 
7 | CC(=O)Nc1cc(Cl)ccc1OC(C)(C)C(=O)N1CCCC1c1ccc(Cl)cc1 (stereo not shown) [QY-10-92] |  | > 10000 nM | > 10000 nM | > 10000 nM | > 10000 nM | 
8 | Cc1ccc(C2CCCN2C(=O)C(C)(C)Oc2ccc(Cl)cc2C(F)(F)F)cc1 (stereo not shown) [QY-4-67] |  | 5160 nM | 1330 nM | 3930 nM | 1380 nM | 
9 | Cc1ccc(C2CCCN2C(=O)C(C)(C)Oc2cccc(C(N)=O)c2)cc1 (stereo not shown) [QY-14-17] |  | > 10000 nM | > 10000 nM | > 10000 nM | > 10000 nM | 
10 | Cc1conc1[C@@H]1CCCN1C(=O)C(C)(C)Oc1ccc(Cl)cc1 [QY-3-11] |  | 3270 nM | 389 nM | 1570 nM | 404 nM | 
11 | CC(C)(Oc1ccc(Cl)cc1)C(=O)N1CCCC1c1ccccc1 (stereo not shown) [QY-3-29] |  | 664 nM | 35 nM | 157 nM | 47 nM | 
12 | CC(C)(Oc1ccc(Cl)cc1)C(=O)N1CCCC1c1ccc(F)cc1 (stereo not shown) [QY-4-7] |  | 825 nM | 126 nM | 652 nM | 111 nM | 
13 | Cc1cccc(C2CCCN2C(=O)C(C)(C)Oc2ccc(Cl)cc2)c1 (stereo not shown) [QY-3-39] |  | 5280 nM | 712 nM | 1480 nM | 386 nM | 
14 | CC(C)(Oc1ccc(Cl)cc1F)C(=O)N1CCCC1c1ccc(C#N)cc1 (stereo not shown) [QY-4-88] |  | 4000 nM | 746 nM | 3100 nM | 1160 nM | 
15 | CC(C)(Oc1ccc(Cl)cc1F)C(=O)N1CCCC1c1ccccc1 (stereo not shown) [QY-3-99, 2-(4-Chloro-2-fluorophenoxy)-2-methyl-1-(2-phenylpyrrolidin-1-yl)propan-1-one] |  | 444 nM | 61 nM |  | 62 nM | 244 nM
16 | CC(C)(C(=O)N1CCCC1c1ccc(Cl)cc1)n1ncc2cc(Cl)ccc21 (stereo not shown) [QY-11-9B] |  | 3340 nM | 2830 nM | 3440 nM | 0.00171 nM | 
17 | CC(C)(C(=O)N1CCCC1c1ccc(Cl)cc1)C1N=Nc2ccc(Cl)cc21 (stereo not shown) [QY-11-9A] |  | > 10000 nM | > 10000 nM | > 10000 nM | 2530 nM | 
18 | Cc1ccc(C2CCCN2C(=O)C(C)(C)Oc2ccc(Cl)cn2)cc1 (stereo not shown) [QY-13-42] |  | 4900 nM | 0.0395 nM | 322 nM | 102 nM | 
19 | CC(C)(C(=O)N1CCCC1c1ccc(Cl)cc1)n1cnc2ccc(Cl)cc21 (stereo not shown) [QY-11-16A] |  | > 10000 nM | > 10000 nM | > 10000 nM | > 10000 nM | 
20 | Cc1ccc(C2CCCN2C(=O)C(C)(C)Oc2ccc(C#Cc3cccnc3)cc2)cc1 (stereo not shown) [QY-15-12] |  | > 10000 nM | > 10000 nM | > 10000 nM | 5160 nM | 
21 | CC(C)(Oc1ccc(Cl)cc1F)C(=O)N1CCCC1c1ccc(C(N)=O)cc1 (stereo not shown) [QY-5-85] |  | > 10000 nM | 5340 nM | > 10000 nM | > 10000 nM | 
22 | Cc1noc([C@@H]2CCCN2C(=O)C(C)(C)Oc2c(F)cc(F)cc2F)n1 [QY-4-14] |  | 40600 nM | 18000 nM | > 10000 nM | 5890 nM | 
